# Test results reported in ChEMBL document CHEMBL4138123, “Design, synthesis and biological evaluation of novel pyrazolochalcones as potential modulators of PI3K/Akt/mTOR pathway and inducers of apoptosis in breast cancer cells” (Eur J Med Chem, 2017).
# Tests used:
# Type in all cases: functional
# SR = test: Cytotoxicity against human SR cells assessed as growth inhibition after 48 hrs by sulforhodamine B assay; settings: for CC50: read-out: LC50 (the source's name)
# A549 [1] = test: Cytotoxicity against human A549/ATCC cells assessed as growth inhibition after 48 hrs by sulforhodamine B assay; settings: A549, 48 h
# NCI-H460 [2] = test: Cytotoxicity against human NCI-H460 cells assessed as growth inhibition after 48 hrs by sulforhodamine B assay; settings: NCI-H460, 48 h
# OVCAR-4 = test: Cytotoxicity against human OVCAR4 cells assessed as growth inhibition after 48 hrs by sulforhodamine B assay; settings: OVCAR-4, 48 h
# 786-0 [3] = test: Cytotoxicity against human 786-0 cells assessed as growth inhibition after 48 hrs by sulforhodamine B assay; settings: 786-0, 48 h
# RXF 393 [4] = test: Cytotoxicity against human RXF393 cells assessed as growth inhibition after 48 hrs by sulforhodamine B assay; settings: RXF 393, 48 h
# U-251 [5] = test: Cytotoxicity against human U251 cells assessed as cell growth at 0.01 uM after 48 hrs by sulforhodamine B assay relative to control; settings: U-251, 48 h, read-out: Activity
# SF-539 = test: Cytotoxicity against human SF539 cells assessed as cell growth at 0.01 uM after 48 hrs by sulforhodamine B assay relative to control; settings: SF-539, 48 h, read-out: Activity
# HCT-15 [6] = test: Cytotoxicity against human HCT15 cells assessed as cell growth at 0.01 uM after 48 hrs by sulforhodamine B assay relative to control; settings: HCT-15, 48 h, read-out: Activity
# A549 [7] = test: Cytotoxicity against human A549/ATCC cells assessed as cell growth at 0.01 uM after 48 hrs by sulforhodamine B assay relative to control; settings: A549, 48 h, read-out: Activity
# HL-60(TB) = test: Cytotoxicity against human HL-60(TB) cells assessed as cell growth at 0.01 uM after 48 hrs by sulforhodamine B assay relative to control; settings: HL-60, 48 h, read-out: Activity
# SN12C = test: Cytotoxicity against human SN12C cells assessed as cell growth at 0.01 uM after 48 hrs by sulforhodamine B assay relative to control; settings: read-out: Activity
# MDA-MB-468 = test: Cytotoxicity against human MDA-MB-468 cells assessed as cell growth at 0.01 uM after 48 hrs by sulforhodamine B assay relative to control; settings: MDA-MB-468, 48 h, read-out: Activity
# NCI-H522 [8] = test: Cytotoxicity against human NCI-H522 cells assessed as cell growth at 0.1 uM after 48 hrs by sulforhodamine B assay relative to control; settings: NCI-H522, 48 h, read-out: Activity
# U-251 [9] = test: Cytotoxicity against human U251 cells assessed as cell growth at 0.1 uM after 48 hrs by sulforhodamine B assay relative to control; settings: U-251, 48 h, read-out: Activity
# 786-0 [10] = test: Cytotoxicity against human 786-0 cells assessed as cell growth at 0.1 uM after 48 hrs by sulforhodamine B assay relative to control; settings: 786-0, 48 h, read-out: Activity
# ACHN = test: Cytotoxicity against human ACHN cells assessed as cell growth at 0.1 uM after 48 hrs by sulforhodamine B assay relative to control; settings: read-out: Activity
# RXF 393 [11] = test: Cytotoxicity against human RXF393 cells assessed as cell growth at 0.1 uM after 48 hrs by sulforhodamine B assay relative to control; settings: RXF 393, 48 h, read-out: Activity
# NCI-H226 = test: Cytotoxicity against human NCI-H226 cells assessed as cell growth at 1 uM after 48 hrs by sulforhodamine B assay relative to control; settings: NCI-H226, 48 h, read-out: Activity
# NCI-H522 [12] = test: Cytotoxicity against human NCI-H522 cells assessed as cell growth at 1 uM after 48 hrs by sulforhodamine B assay relative to control; settings: NCI-H522, 48 h, read-out: Activity
# SW-620 = test: Cytotoxicity against human SW620 cells assessed as cell growth at 1 uM after 48 hrs by sulforhodamine B assay relative to control; settings: SW-620, 48 h, read-out: Activity
# SK-MEL-5 = test: Cytotoxicity against human SK-MEL-5 cells assessed as cell growth at 1 uM after 48 hrs by sulforhodamine B assay relative to control; settings: SK-MEL-5, 48 h, read-out: Activity
# IGROV-1 = test: Cytotoxicity against human IGROV1 cells assessed as cell growth at 1 uM after 48 hrs by sulforhodamine B assay relative to control; settings: IGROV-1, 48 h, read-out: Activity
# NCI-H460 [13] = test: Cytotoxicity against human NCI-H460 cells assessed as cell growth at 10 uM after 48 hrs by sulforhodamine B assay relative to control; settings: NCI-H460, 48 h, read-out: Activity
# HCT-15 [14] = test: Cytotoxicity against human HCT15 cells assessed as cell growth at 10 uM after 48 hrs by sulforhodamine B assay relative to control; settings: HCT-15, 48 h, read-out: Activity
# M14 [15] = test: Cytotoxicity against human M14 cells assessed as cell growth at 10 uM after 48 hrs by sulforhodamine B assay relative to control; settings: M14, 48 h, read-out: Activity
# OVCAR-3 = test: Cytotoxicity against human OVCAR3 cells assessed as cell growth at 10 uM after 48 hrs by sulforhodamine B assay relative to control; settings: OVCAR-3, 48 h, read-out: Activity
# OVCAR-5 = test: Cytotoxicity against human OVCAR5 cells assessed as cell growth at 10 uM after 48 hrs by sulforhodamine B assay relative to control; settings: OVCAR-5, 48 h, read-out: Activity
# DU-145 = test: Cytotoxicity against human DU145 cells assessed as cell growth at 10 uM after 48 hrs by sulforhodamine B assay relative to control; settings: DU-145, 48 h, read-out: Activity
# Hs-578T [16] = test: Cytotoxicity against human Hs 578T cells assessed as cell growth at 10 uM after 48 hrs by sulforhodamine B assay relative to control; settings: read-out: Activity
# CCRF-CEM = test: Cytotoxicity against human CCRF-CEM cells assessed as cell growth at 100 uM after 48 hrs by sulforhodamine B assay relative to control; settings: read-out: Activity
# COLO 205 = test: Cytotoxicity against human COLO205 cells assessed as cell growth at 100 uM after 48 hrs by sulforhodamine B assay relative to control; settings: COLO 205, 48 h, read-out: Activity
# HT-29 = test: Cytotoxicity against human HT-29 cells assessed as cell growth at 100 uM after 48 hrs by sulforhodamine B assay relative to control; settings: HT-29, 48 h, read-out: Activity
# SF-268 = test: Cytotoxicity against human SF268 cells assessed as cell growth at 100 uM after 48 hrs by sulforhodamine B assay relative to control; settings: SF-268, 48 h, read-out: Activity
# M14 [17] = test: Cytotoxicity against human M14 cells assessed as cell growth at 100 uM after 48 hrs by sulforhodamine B assay relative to control; settings: M14, 48 h, read-out: Activity
# Hs-578T [18] = test: Cytotoxicity against human Hs 578T cells assessed as cell growth at 100 uM after 48 hrs by sulforhodamine B assay relative to control; settings: read-out: Activity
structure (smiles),measurement,setting,value
COc1ccc(C(=O)/C=C/c2cc(-c3ccc4c(c3)OCO4)n[nH]2)cc1OC,TGI,SR,6.48 µM
same,CC50,SR,> 100 µM
same,LC50 (concentration giving 50% net cell kill),A549 [1],> 100 µM
same,TGI,A549 [1],15.8 µM
same,LC50,NCI-H460 [2],9.07 µM
same,TGI,NCI-H460 [2],4.05 µM
same,LC50,OVCAR-4,> 100 µM
same,TGI,OVCAR-4,40.3 µM
same,LC50,786-0 [3],42.3 µM
same,TGI,786-0 [3],11.4 µM
same,LC50 (concentration killing 50% of cells),RXF 393 [4],15.9 µM
same,TGI,RXF 393 [4],5.39 µM
same,growth at 0.01 µM,U-251 [5],90%
same,growth at 0.01 µM,SF-539,98%
same,growth at 0.01 µM,HCT-15 [6],92%
same,growth at 0.01 µM,A549 [7],96%
same,growth at 0.01 µM,HL-60(TB),97%
same,growth at 0.01 µM,SN12C,92%
same,growth at 0.01 µM,MDA-MB-468,92%
same,growth at 0.1 µM,NCI-H522 [8],87%
same,growth at 0.1 µM,U-251 [9],91%
same,growth at 0.1 µM,786-0 [10],95%
same,growth at 0.1 µM,ACHN,100%
same,growth at 0.1 µM,RXF 393 [11],97%
same,growth at 1 µM,NCI-H226,106%
same,growth at 1 µM,NCI-H522 [12],84%
same,growth at 1 µM,SW-620,92%
same,growth at 1 µM,SK-MEL-5,95%
same,growth at 1 µM,IGROV-1,93%
same,growth at 10 µM,NCI-H460 [13],-56%
same,growth at 10 µM,HCT-15 [14],6%
same,growth at 10 µM,M14 [15],38%
same,growth at 10 µM,OVCAR-3,-47%
same,growth at 10 µM,OVCAR-5,17%
same,growth at 10 µM,DU-145,-51%
same,growth at 10 µM,Hs-578T [16],-9%
same,growth at 100 µM,CCRF-CEM,-13%
same,growth at 100 µM,COLO 205,-83%
same,growth at 100 µM,HT-29,-44%
same,growth at 100 µM,SF-268,-74%
same,growth at 100 µM,M14 [17],-77%
same,growth at 100 µM,Hs-578T [18],-5%
COc1cc(-c2cc(/C=C/C(=O)c3ccc(N)cc3)[nH]n2)cc(OC)c1OC,GI50,SR,320 nM
same,TGI,SR,2.75 µM
same,CC50,SR,> 100 µM
same,GI50,A549 [1],2080 nM
same,LC50 (concentration giving 50% net cell kill),A549 [1],86.5 µM
same,TGI,A549 [1],7.02 µM
same,GI50,NCI-H460 [2],1800 nM
same,LC50,NCI-H460 [2],44.8 µM
same,TGI,NCI-H460 [2],5.1 µM
same,GI50,OVCAR-4,1400 nM
same,LC50,OVCAR-4,23.7 µM
same,TGI,OVCAR-4,5.44 µM
same,GI50,786-0 [3],2040 nM
same,LC50,786-0 [3],27.6 µM
same,TGI,786-0 [3],6.49 µM
same,GI50,RXF 393 [4],1350 nM
same,LC50 (concentration killing 50% of cells),RXF 393 [4],7.79 µM
same,TGI,RXF 393 [4],3.24 µM
same,growth at 0.01 µM,U-251 [5],98%
same,growth at 0.01 µM,SF-539,92%
same,growth at 0.01 µM,HCT-15 [6],92%
same,growth at 0.01 µM,A549 [7],96%
same,growth at 0.01 µM,HL-60(TB),99%
same,growth at 0.01 µM,SN12C,98%
same,growth at 0.01 µM,MDA-MB-468,90%
same,growth at 0.1 µM,NCI-H522 [8],92%
same,growth at 0.1 µM,U-251 [9],94%
same,growth at 0.1 µM,786-0 [10],94%
same,growth at 0.1 µM,ACHN,97%
same,growth at 0.1 µM,RXF 393 [11],91%
same,growth at 1 µM,NCI-H226,88%
same,growth at 1 µM,NCI-H522 [12],77%
same,growth at 1 µM,SW-620,82%
same,growth at 1 µM,SK-MEL-5,90%
same,growth at 1 µM,IGROV-1,100%
same,growth at 10 µM,NCI-H460 [13],-32%
same,growth at 10 µM,HCT-15 [14],-12%
same,growth at 10 µM,M14 [15],-64%
same,growth at 10 µM,OVCAR-3,-71%
same,growth at 10 µM,OVCAR-5,-66%
same,growth at 10 µM,DU-145,-50%
same,growth at 10 µM,Hs-578T [16],29%
same,growth at 100 µM,CCRF-CEM,-21%
same,growth at 100 µM,COLO 205,-78%
same,growth at 100 µM,HT-29,-49%
same,growth at 100 µM,SF-268,-80%
same,growth at 100 µM,M14 [17],-78%
same,growth at 100 µM,Hs-578T [18],2%
